From patent US5798352A, “Antithrombotic amidinotetrahydropyridylalanine derivatives” (Pfizer Inc., priority 1995, dated 1998)
Structures can show the parent of a compound that is named as a salt.

Assays:
trypsin = target: T1, trypsin (Bos taurus, UniProt P00760); test: Chromogenic assay, trypsin inhibition (substrate S2222); format: biochemical; conditions: in vitro; bovine pancreatic trypsin; Ki calculated from substrate Km and IC50; pH 8.0, 30° C.
T1 construct: from tissue; host or cells: bovine pancreas
T1 sequence (P00760 24-246): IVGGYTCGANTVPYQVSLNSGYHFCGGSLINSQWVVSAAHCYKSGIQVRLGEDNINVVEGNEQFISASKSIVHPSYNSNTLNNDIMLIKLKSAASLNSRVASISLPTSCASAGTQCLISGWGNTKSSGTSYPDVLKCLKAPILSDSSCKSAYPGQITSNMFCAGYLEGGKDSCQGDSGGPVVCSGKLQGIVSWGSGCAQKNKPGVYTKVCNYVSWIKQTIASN
Method: (§1) The biological activities of the compounds of the present invention were determined by the following test methods.
(§2) The inhibition of thrombin, trypsin, plasmin or factor Xa is measured in 96 well plate chromogenic assays. The percentage inhibition and IC50 are calculated from triplicate samples of an 8 concentration dose-response curve. From the substrate Km and IC50, the Ki for each inhibitor is calculated. All assays are carried out in a total incubation of 200 μl of 50 mM HEPES and 150 mM NaCl at pH 8.0, and all compound dilutions are preincubated with enzyme at room temperature for 15 minutes prior to addition of substrate. After 30 minutes incubation at 30° C., the O.D. is measured at […] in a 96 well plate reader. Thrombin activity is measured using bovine thrombin and S2238 (H-D-Phe-Pip-Arg-pNA), bovine pancreatic trypsin is assayed with S2222 (Benz-Isoleu-Glu-Gly-Arg-pNA), bovine plasma plasmin is assayed with Chromozym PL (Tosyl-Gly-Pro-Lys-pNA)and bovine fac or Xa is assayed in 50 mM Tris, 150 mM NaCl, pH 7.5 buffer with S2222.

thrombin = thrombin (Bos taurus, UniProt P00735); test: Chromogenic assay, thrombin inhibition (substrate S2238); format: biochemical; conditions: in vitro; bovine thrombin; Ki calculated from substrate Km and IC50; pH 8.0, 30° C.
Method: as §1, §2

| Compound | Ki (trypsin) | Ki (thrombin) |
| --- | --- | --- |
| C[C@@H]1CCN(C(=O)[C@H](CC2=CCCN(C(=N)N)C2)NS(=O)(=O)c2ccc3c(c2)CN(C)CC3)[C@H](C(=O)O)C1 [Example 5, 4(R)-Methyl-1-[N-(2-methyl-1,2,3,4-tetrahydroisoquinoline-7-sulphonyl)-3-(1-amidino-1,2,5,6-tetrahydro-3-pyridyl)-(S)-alanyl]piperidine-2(S-carboxylicacid dihydrochloride] | 2400 nM | 1.9 nM |
| C[C@H]1CCN(C(=O)[C@H](CC2=CCCN(C(=N)N)C2)NS(=O)(=O)c2ccc3c(c2)CN(C)CC3)[C@@H](C(=O)O)C1 [Example 6, 4(S)-Methyl-1-[N-(2-methyl-1,2,3,4-tetrahydroisoquinoline-7-sulphonyl)-3-(1-amidino-1,2,5,6-tetrahydro-3-pyridyl)-(S)-alanyl]piperidine-2(R)-carboxylic acid dihydrochloride] | 690 nM | 9.9 nM |
